Like-named read-outs stand apart in the source and are kept apart here.
How the values were obtained:
[1] = Human liver microsomal stability assay; assay type: in vitro ADME; details: 0.1 μmol/L compound, 30 min, 37° C., NADPH generating system
Experimental: Human Liver Microsomal Stability Assay The compound was dissolved in DMSO to prepare 1 mmol/L DMSO solution. The DMSO solution was diluted with distilled water to prepare 1 μmol/L compound dosing solution (DMSO conc.: 0.1%). 105 μL of reaction buffer (1 mol/L phosphate buffer (pH 7.4)/1 mmol/L EDTA (pH 7.4)/distilled water=1/1/5, v/v/v), 15 μL of 1 μmol/L compound dosing solution, and 15 μL of rat or human liver microsomes (5 mg/mL) were mixed, and preincubated for 5 min at 37° C. Metabolic reaction was initiated by adding 15 μL of NADPH generating system (3.3 mmol/L β-NADPH+, 80 mmol/L glucose 6-phosphate, 1 unit/mL glucose 6-phosphate dehydrogenase, 60 mmol/L MgCl2). For the control sample, NADPH generating system was replaced with 60 mmol/L MgCl2. The 150 μL of reaction mixture (final compound conc.: 0.1 μmol/L, final DMSO conc.: 0.01%) was incubated for 30 min at 37° C., and the reaction was terminated by adding 150 μL of methanol/acetonitrile solution containing an appropriate internal standard compound. The sample was vortexed and centrifuged, and obtained supernatant was subject to LC/MS analysis.

[2] = system: Aβ peptide production in rat primary neuronal culture; assay: In vitro cellular assay: quantification of Aβ peptide in culture of neurons from rat fetus brain; assay type: cell-based, Wistar rat; details: Primary cortical neuron
Experimental: Quantification of Aβ Peptide in Culture of Neurons from Rat Fetus Brain
Primary neuronal cultures were prepared from the cerebral cortex of embryonic day 18 Wistar rats (Charles River, UK). Specifically, the embryos were aseptically removed from pregnant rats under ether anesthesia. The brain was isolated from the embryo and immersed in HBSS (Sigma Aldrich #H9269) containing 10 mM HEPES (Gibco #15630-056). The cerebral cortex was collected from the isolated brain under a stereoscopic microscope. The cerebral cortex fragments collected were enzymatically treated in an enzyme solution containing 0.05% trypsin-EDTA solution (GIBCO, #25300) at 37° C. for 20 minutes to disperse the cells. The cells were then washed twice and then gently resuspended in Neurobasal medium (Gibco #21103) supplemented with 2% B27 supplement (GIBCO #17504-044), 0.5 mM L-glutamine (GIBCO #25030), 1×N2 (GIBCO #17502-048), 100 μg/ml Pen/Strep (GIBCO 15140-122) and 5% heat inactivated FCS (PAA #A15-701). The cell dispersion was filtered through a 40-μm nylon mesh (BD Falcon #352340) to remove the remaining cell mass, and thus a neuronal cell suspension was obtained. The neuronal cell suspension was diluted with the medium above and then plated in a volume of 100 μL/well at an initial cell density of 3.25×10^5 cells/ml in poly-D-lysine coated 96-well culture plate (Greiner #655940). The plated cells were cultured in the culture plate at 37° C. in 5% CO2-95% air for 24 hrs. The total amount of the medium was replaced with ‘assay Neurobasal medium’ (as above excluding heat inactivated FCS), and then the cells were cultured for a further five days.
The drug was added to the culture plate on Day 6 of culture as follows. 8 point compound serial dilutions were generated in DMSO at a concentration of ×1000 that of the final assay concentration (FAC). Compound solutions were then prepared by adding 999 ul of ‘Assay Neurobasal media’ (as described in above section) to 1 ul of DMSO compound stock. The total amount of the medium was removed from each of the cell plate wells, and […] of ‘Assay Neurobasal media’ was added followed by […] of compound solution. The final DMSO concentration was 0.1%. […]
Cell survival was evaluated using an Alamar assay according to the following procedure. […]
Measurement of fluorescence intensity for each well was the carried out at 540/590 nm using a Pherastar plus plate reader (BMG labtech). […]
Human/Rat β Amyloid (42) ELISA Kit Wako (#290-62601) and Human/Rat P Amyloid (40) ELISA Kit Wako (#294-62501) from Wako Pure Chemical Industries, Ltd. were used for Aβ ELISA. […] The results were shown as percentage of the control groups and IC50 values for each compound were determined using four parameter logistic fit model using the XLFIT5 software package (IDBS).

[3] = Aβ ELISA, rat primary cortical neurons, Aβ species (x-40 or x-42) not given, read-out: IC50

SMILES: COc1cnc(C(=O)Nc2ccc(F)c([C@]34CO[C@H](CF)[C@H]3CSC(N)=N4)c2)cn1 [Example 2, N-(3-((4aS,5S,7aS)-2-amino-5-(fluoromethyl)-4a,5,7,7a-tetrahydro-4H-furo[3,4-d][1,3]thiazin-7a-yl)-4-fluorophenyl)-5-methoxypyrazine-2-carboxamide]
- HLM stability: percentage of parent remaining upon 30 minute incubation with human liver microsomes [1]: 82.0%
- IC50 ([2]; Rattus norvegicus): 4 nM

SMILES: COc1cnc(C(=O)Nc2ccc(F)c([C@]34CO[C@H](C(F)F)[C@H]3CSC(N)=N4)c2)cn1 [Example 3, N-(3-((4aS,5S,7aS)-2-amino-5-(difluoromethyl)-4a,5,7,7a-tetrahydro-4H-furo[3,4-d][1,3]thiazin-7a-yl)-4-fluorophenyl)-5-methoxypyrazine-2-carboxamide]
- HLM stability: percentage of parent remaining upon 30 minute incubation with human liver microsomes [1]: 73.3%
- IC50 [2, 3]: 4 nM

SMILES: COc1cnc(C(=O)Nc2cc(F)c(F)c([C@]34CO[C@H](CF)[C@H]3CSC(N)=N4)c2)cn1 [Example 4, N-(3-((4aS,5S,7aS)-2-amino-5-(fluoromethyl)-4a,5,7,7a-tetrahydro-4H-furo[3,4-d][1,3]thiazin-7a-yl)-4,5-difluorophenyl)-5-methoxypyrazine-2-carboxamide]
- HLM stability: percentage of parent remaining upon 30 minute incubation with human liver microsomes [1]: 78.6%
- IC50 [2, 3]: 12 nM

— US9175013B2, “Fused aminodihydrothiazine derivatives” (Eisai R&D Management Co., Ltd., priority 2011, dated 2015)
